Source: PMC8391236, “Effect of Pterostilbene, a Natural Derivative of Resveratrol, in the Treatment of Colorectal Cancer through Top1/Tdp1-Mediated DNA Repair Pathway” (Cancers, 2021)

Legend:
HCT-116 = experiment: Cell viability assay (CCK-8); type: cell-based, Human
Experimental: (§1) PTE or RE were dissolved in DMSO and diluted with culture medium to 1–100 μM. The final concentration of DMSO was less than 0.1%, and 0.1% DMSO as negative control. CPT, as Top1 inhibitor, was diluted to 0.5 μM [36, 37], and FM, as Tdp1 inhibitor was diluted to 25 μM [38]. Exponentially growing cells were seeded in 96-well plates (5 × 10^3 cells/well) for 12 h. Various drugs were added separately and incubated for 24, 48, and 72 h. Cell viability was determined by CCK-8 (Beyotime Biotechnology, Shanghai, China) assay. […]
(§2) The drug concentration required for inhibiting cell proliferation by 50% (IC50) was determined by interpolation from dose-response curves.

HCT-8 = experiment: Cell viability assay (CCK-8); type: cell-based, Human
Experimental: as §1, §2

COLO205 = experiment: Cell viability assay (CCK-8); type: cell-based, Human
Experimental: as §1, §2

LoVo = experiment: Cell viability assay (CCK-8); type: cell-based, Human
Experimental: as §1, §2

CL187 = experiment: Cell viability assay (CCK-8); type: cell-based, Human
Experimental: as §1, §2

CL187 cells = experiment: Intracellular drug distribution (LC-MS/MS); type: in vitro ADME, Human; settings: CL187 cells incubated 6 h; nucleus, mitochondria, cytoplasm extracts
Experimental: CL187 cells were inoculated in 6-well plates, until the well was full of the cells. Then the supernatant was discarded, and the cells were washed with PBS three times. The cells were added with the different concentrations of PTE or RE and incubated for 6 h. After supernatant was discarded, the cells were washed with cold Hank’s solution for three times to terminate cell metabolism. Cell cytoplasm, nucleus, and mitochondria were extracted with the nuclear and mitochondrial extraction kit (KeyGEN BioTECH, Nanjing, China). Cells were resuspended with 1.5 mL Lysis Buffer and transferred to a 2 mL glass homogenizer for grinding (0–4 °C ice bath). The homogenate was collected and centrifuged at 800× g at 4 °C for 5 min. The nuclei were distributed in the precipitate, while the mitochondria were distributed in the supernatant. […] The protein concentration of each extract was detected by the BCA kit.
The drug contents of the extracted cell cytoplasm, nucleus, and mitochondria were determined by LC-MS/MS. […] The calibration range for the quantitation of each compound in all cellular components was 10 to 10,000 ng/mL. […]

`COc1cc(/C=C/c2ccc(O)cc2)cc(OC)c1` [PTE, 3,5-dimethoxy-4′-hydroxy-trans-stilbene] showed an IC50 (HCT-116; HCT-116, 72 h, listed as Pterostilbene) of 21.4 ± 6.79 µM, an IC50 (HCT-116; Homo sapiens, HCT-116, 24 h) of 31.2 ± 10.2 µM and an IC50 (HCT-116; Homo sapiens, HCT-116, 48 h) of 15.4 ± 4.49 µM. It also gave an IC50 (HCT-116; Homo sapiens, HCT-116, 72 h) of under 30 µM, an IC50 (HCT-8; HCT-8, 72 h, listed as Pterostilbene) of 25 ± 6.62 µM and an IC50 (HCT-8; Homo sapiens, HCT-8, 24 h) of 29.9 ± 10.6 µM. For the same molecule, the IC50 (HCT-8; Homo sapiens, HCT-8, 48 h) was 25.4 ± 8.25 µM, the IC50 (HCT-8; Homo sapiens, HCT-8, 72 h) was under 30 µM and the IC50 (COLO205; COLO205, 72 h) was under 30 µM. For the same molecule, the IC50 (COLO205; COLO205, 72 h, listed as Pterostilbene) was 13.6 ± 6.1 µM, the IC50 (COLO205; Homo sapiens, COLO 205, 24 h, COLO205, 24 h) was 44.4 ± 16.7 µM and the IC50 (COLO205; Homo sapiens, COLO 205, 48 h, COLO205, 48 h) was 24.5 ± 9.13 µM. The IC50 (LoVo; 72 h) was under 30 µM, the IC50 (LoVo; 72 h, listed as Pterostilbene) was 12 ± 4.01 µM and the IC50 (LoVo; Homo sapiens, 24 h) was 106 ± 28.6 µM. It also gave an IC50 (LoVo; Homo sapiens, 48 h) of 14.2 ± 4.84 µM, an IC50 (CL187; CL187, 72 h) of under 30 µM and an IC50 (CL187; CL187, 72 h, listed as Pterostilbene) of 14.4 ± 2.93 µM. The IC50 (CL187; Homo sapiens, 24 h, CL187, 24 h) was 24.2 ± 11.6 µM, the IC50 (CL187; Homo sapiens, 48 h, CL187, 48 h) was 13.8 ± 4.7 µM and the “concentration of drug in cells (maximum)” value (CL187 cells) was “more than 70.0 ng/μg”.
